From US20220289708A1, “SUBSTITUTED N-PHENYL URACILS, SALTS THEREOF AND THEIR USE AS HERBICIDAL AGENTS” (Bayer Aktiengesellschaft, priority 2019, published 2022)

Experiments:
Format in all cases: in vivo
[1] = tested on: Oryza sativa; assay: Post-emergence crop plant compatibility
Procedure: a. Post-Emergence Herbicidal Action and Crop Plant Compatibility
(§1) Seeds of monocotyledonous and dicotyledonous weeds and crop plants were placed in sandy loam in plastic or wood-fiber pots, covered with soil and cultivated in a greenhouse under controlled growth conditions. 2 to 3 weeks after sowing, the test plants were treated at the one-leaf stage. The compounds of the invention, formulated in the form of wettable powders (WP) or as emulsion concentrates (EC), were then sprayed onto the green parts of the plants as aqueous suspension or emulsion with addition of 0.5% additive at a water application rate of 600 l/ha (converted). After the test plants had been kept in the greenhouse under optimum growth conditions for about 3 weeks, the activity of the preparations was rated visually in comparison to untreated controls. For example, 100% activity=the plants have died, 0% activity=like control plants.
Tables A16 to A19 below show the crop plant compatibilities of selected compounds of the general formula (I) according to Tables I.1 to I.36 at an application rate corresponding to 5 g/ha or 20 g/ha, which were obtained in experiments according to the experimental procedure mentioned above. Here, the observed effects on selected crop plants are stated in comparison to the untreated controls (values in %).

[2] = tested on: Lolium rigidum; assay: Post-emergence herbicidal action; conditions: application rate 20 g/ha, rated visually after about 3 weeks vs untreated controls
Procedure: as §1, with “a. Post-Emergence Herbicidal Action and Crop Plant Compatibility Seeds” for “Seeds”, “plants. Tables A1 to A15 below show the effects of selected compounds of the general formula (I) according to Tables I.1 to I.36 on various harmful plants and at an application rate corresponding to 20 g/ha and less, which were obtained by the experimental procedure mentioned above.” for “plants.”

[3] = tested on: Veronica persica; assay: Post-emergence herbicidal action; conditions: application rate 20 g/ha
Procedure: as §1, with “a. Post-Emergence Herbicidal Action and Crop Plant Compatibility Seeds” for “Seeds”, “plants. Tables A1 to A15 below show the effects of selected compounds of the general formula (I) according to Tables I.1 to I.36 on various harmful plants and at an application rate corresponding to 20 g/ha and less, which were obtained by the experimental procedure mentioned above.” for “plants.”

[4] = tested on: Abutilon theophrasti; assay: Post-emergence herbicidal action; conditions: application rate 20 g/ha, rated visually after about 3 weeks vs untreated controls
Procedure: as §1, with “a. Post-Emergence Herbicidal Action and Crop Plant Compatibility Seeds” for “Seeds”, “plants. Tables A1 to A15 below show the effects of selected compounds of the general formula (I) according to Tables I.1 to I.36 on various harmful plants and at an application rate corresponding to 20 g/ha and less, which were obtained by the experimental procedure mentioned above.” for “plants.”

[5] = tested on: Alopecurus myosuroides; assay: Post-emergence herbicidal action; conditions: application rate 20 g/ha, rated visually after about 3 weeks vs untreated controls
Procedure: as §1, with “a. Post-Emergence Herbicidal Action and Crop Plant Compatibility Seeds” for “Seeds”, “plants. Tables A1 to A15 below show the effects of selected compounds of the general formula (I) according to Tables I.1 to I.36 on various harmful plants and at an application rate corresponding to 20 g/ha and less, which were obtained by the experimental procedure mentioned above.” for “plants.”

[6] = tested on: Avena fatua; assay: Post-emergence herbicidal action; conditions: application rate 20 g/ha, rated visually after about 3 weeks vs untreated controls
Procedure: as §1, with “a. Post-Emergence Herbicidal Action and Crop Plant Compatibility Seeds” for “Seeds”, “plants. Tables A1 to A15 below show the effects of selected compounds of the general formula (I) according to Tables I.1 to I.36 on various harmful plants and at an application rate corresponding to 20 g/ha and less, which were obtained by the experimental procedure mentioned above.” for “plants.”

[7] = tested on: Digitaria sanguinalis; assay: Post-emergence herbicidal action; conditions: application rate 20 g/ha, rated visually after about 3 weeks vs untreated controls
Procedure: as §1, with “a. Post-Emergence Herbicidal Action and Crop Plant Compatibility Seeds” for “Seeds”, “plants. Tables A1 to A15 below show the effects of selected compounds of the general formula (I) according to Tables I.1 to I.36 on various harmful plants and at an application rate corresponding to 20 g/ha and less, which were obtained by the experimental procedure mentioned above.” for “plants.”

[8] = tested on: Pharbitis purpurea; assay: Post-emergence herbicidal action; conditions: application rate 20 g/ha, rated visually after about 3 weeks vs untreated controls
Procedure: as §1, with “a. Post-Emergence Herbicidal Action and Crop Plant Compatibility Seeds” for “Seeds”, “plants. Tables A1 to A15 below show the effects of selected compounds of the general formula (I) according to Tables I.1 to I.36 on various harmful plants and at an application rate corresponding to 20 g/ha and less, which were obtained by the experimental procedure mentioned above.” for “plants.”

[9] = tested on: Matricaria inodora; assay: Post-emergence herbicidal action; conditions: application rate 20 g/ha, rated visually after about 3 weeks vs untreated controls
Procedure: as §1, with “a. Post-Emergence Herbicidal Action and Crop Plant Compatibility Seeds” for “Seeds”, “plants. Tables A1 to A15 below show the effects of selected compounds of the general formula (I) according to Tables I.1 to I.36 on various harmful plants and at an application rate corresponding to 20 g/ha and less, which were obtained by the experimental procedure mentioned above.” for “plants.”

[10] = tested on: Polygonum convolvulus; assay: Post-emergence herbicidal action; conditions: application rate 20 g/ha
Procedure: as §1, with “a. Post-Emergence Herbicidal Action and Crop Plant Compatibility Seeds” for “Seeds”, “plants. Tables A1 to A15 below show the effects of selected compounds of the general formula (I) according to Tables I.1 to I.36 on various harmful plants and at an application rate corresponding to 20 g/ha and less, which were obtained by the experimental procedure mentioned above.” for “plants.”

[11] = tested on: Amaranthus retroflexus; assay: Post-emergence herbicidal action; conditions: application rate 20 g/ha, rated visually after about 3 weeks vs untreated controls
Procedure: as §1, with “a. Post-Emergence Herbicidal Action and Crop Plant Compatibility Seeds” for “Seeds”, “plants. Tables A1 to A15 below show the effects of selected compounds of the general formula (I) according to Tables I.1 to I.36 on various harmful plants and at an application rate corresponding to 20 g/ha and less, which were obtained by the experimental procedure mentioned above.” for “plants.”

[12] = tested on: Echinochloa crus-galli; assay: Post-emergence herbicidal action; conditions: application rate 20 g/ha, rated visually after about 3 weeks vs untreated controls
Procedure: as §1, with “a. Post-Emergence Herbicidal Action and Crop Plant Compatibility Seeds” for “Seeds”, “plants. Tables A1 to A15 below show the effects of selected compounds of the general formula (I) according to Tables I.1 to I.36 on various harmful plants and at an application rate corresponding to 20 g/ha and less, which were obtained by the experimental procedure mentioned above.” for “plants.”

[13] = tested on: Setaria viridis; assay: Post-emergence herbicidal action; conditions: application rate 20 g/ha, rated visually after about 3 weeks vs untreated controls
Procedure: as §1, with “a. Post-Emergence Herbicidal Action and Crop Plant Compatibility Seeds” for “Seeds”, “plants. Tables A1 to A15 below show the effects of selected compounds of the general formula (I) according to Tables I.1 to I.36 on various harmful plants and at an application rate corresponding to 20 g/ha and less, which were obtained by the experimental procedure mentioned above.” for “plants.”

[14] = tested on: Viola tricolor; assay: Post-emergence herbicidal action; conditions: application rate 20 g/ha
Procedure: as §1, with “a. Post-Emergence Herbicidal Action and Crop Plant Compatibility Seeds” for “Seeds”, “plants. Tables A1 to A15 below show the effects of selected compounds of the general formula (I) according to Tables I.1 to I.36 on various harmful plants and at an application rate corresponding to 20 g/ha and less, which were obtained by the experimental procedure mentioned above.” for “plants.”

Row | Compound | Oryza sativa (efficacy in %) ([1]; application rate 5 g/ha) | Lolium rigidum (efficacy in %) [2] | Veronica persica (efficacy in %) [3] | Abutilon theophrasti (efficacy in %) [4] | Alopecurus myosuroides (efficacy in %) [5] | Avena fatua (efficacy in %) [6] | Digitaria sanguinalis (efficacy in %) [7] | Pharbitis purpurea (efficacy in %) [8] | Matricaria inodora (efficacy in %) [9] | Polygonum convolvulus (efficacy in %) [10] | Amaranthus retroflexus (efficacy in %) [11] | Echinochloa crus-galli (efficacy in %) [12] | Setaria viridis (efficacy in %) [13] | Viola tricolor (efficacy in %) [14] | Oryza sativa (efficacy in %) ([1]; application rate 20 g/ha)
1 | Cn1c(C(F)(F)F)cc(=O)n(-c2cc(Oc3cccnc3OCC(=O)OC3COC3)c(Br)cc2F)c1=O [I.16-115] | 20% | 100% | 100% | 100% | 100% | 80% | 100% | 100% | 100% | 100% | 100% | 100% | 100% | 100% | 
2 | CCOC(COC(=O)COc1ncccc1Oc1cc(-n2c(=O)cc(C(F)(F)F)n(C)c2=O)c(F)cc1Br)OCC [I.16-422] | 20% | 90% | 100% | 100% | 100% | 100% | 100% | 100% | 100% | 100% | 100% | 100% | 100% | 100% | 
3 | Cn1c(C(F)(F)F)cc(=O)n(-c2cc(Sc3cccnc3OCC(=O)OC3COC3)c(Cl)cc2F)c1=O [I.1-115] | 20% | 80% | 100% | 100% | 100% | 80% | 100% | 100% | 100% |  | 100% | 100% | 100% | 100% | 
4 | CCS(=O)(=O)NCCOC(=O)COc1ncccc1Oc1cc(-n2c(=O)cc(C(F)(F)F)n(C)c2=O)c(F)cc1Br [I.16-421] | 20% | 90% | 100% | 100% | 100% | 100% | 100% | 100% | 100% | 100% | 100% | 100% | 100% | 100% | 
5 | Cn1c(C(F)(F)F)cc(=O)n(-c2cc(Sc3cccnc3OCC(=O)OCC#N)c(Cl)cc2F)c1=O [I.1-176] | 20% | 80% | 100% | 100% | 100% | 90% | 100% | 100% | 100% |  | 100% | 100% | 100% | 100% | 
6 | COCCOC(=O)COc1ncc(F)cc1Sc1cc(-n2c(=O)cc(C(F)(F)F)n(C)c2=O)c(F)cc1Cl [I.31-1] |  | 80% | 100% | 100% | 90% |  | 100% | 100% | 100% |  | 100% | 100% | 100% | 100% | 20%
7 | Cn1c(C(F)(F)F)cc(=O)n(-c2cc(Oc3cc(F)cnc3OCC(=O)OCC#N)c(Cl)cc2F)c1=O [I.36-176] | 20% | 80% | 90% | 100% | 100% | 80% | 100% | 100% | 90% | 100% | 100% | 100% | 100% | 100% | 
8 | Cn1c(C(F)(F)F)cc(=O)n(-c2cc(Sc3cccnc3OCC(=O)OCc3ccccn3)c(Cl)cc2F)c1=O [I.1-286] | 0% | 80% | 100% | 100% | 100% | 80% |  | 100% | 100% |  | 100% | 100% |  | 100% | 
9 | CCOC(COC(=O)COc1ncccc1Oc1cc(-n2c(=O)cc(C(F)(F)F)n(C)c2=O)c(F)cc1[N+](=O)[O-])OCC [I.14-422] |  | 80% | 100% | 100% | 100% | 90% | 100% | 100% | 90% | 100% | 100% | 100% | 100% | 100% | 20%
